Test results: patent publication US20150175599A1, “FAAH Inhibitors” (Ironwood Pharmaceuticals, Inc., priority 2010, published 2015)

Molecular target: T1, human FAAH-1 (Homo sapiens, UniProt O00519)
T1 sequence (O00519 1-579): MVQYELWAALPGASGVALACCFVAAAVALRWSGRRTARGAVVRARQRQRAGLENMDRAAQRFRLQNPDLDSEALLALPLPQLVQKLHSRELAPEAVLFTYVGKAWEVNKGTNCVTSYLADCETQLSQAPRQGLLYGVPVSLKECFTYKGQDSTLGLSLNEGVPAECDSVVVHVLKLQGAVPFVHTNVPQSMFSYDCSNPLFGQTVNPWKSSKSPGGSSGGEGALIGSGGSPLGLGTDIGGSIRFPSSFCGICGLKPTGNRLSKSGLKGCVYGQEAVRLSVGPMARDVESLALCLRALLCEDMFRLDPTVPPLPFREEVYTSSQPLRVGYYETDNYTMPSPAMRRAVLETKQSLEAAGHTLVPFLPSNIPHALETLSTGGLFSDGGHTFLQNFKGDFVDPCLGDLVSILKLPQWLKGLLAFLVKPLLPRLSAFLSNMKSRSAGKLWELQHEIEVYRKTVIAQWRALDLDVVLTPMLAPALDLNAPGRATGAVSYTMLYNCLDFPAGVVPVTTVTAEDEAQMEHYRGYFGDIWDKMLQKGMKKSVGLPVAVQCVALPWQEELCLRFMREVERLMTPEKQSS
Assay: Whole cell anandamide hydrolysis assay (HeLa clone 5c5 transfected with human FAAH-1)
Assay type: cell-based
Settings: HeLa clone 5c5 expressing human FAAH-1; read-out: human FAAH whole cell IC50
Protocol: FAAH activity was assayed in whole cells using methods disclosed previously (Maccarone et al., 1998 J Biol. Chem. 273:32332 and Bisogno et al., 1997 J Biol. Chem. 272:3315). In addition to the cell lines described in Maccarone et al. and Bisogno et al., MCF7 (ATCC designation HTB-22) and T84 (ATCC designation CCL-248) cell lines were also used in these assays.
cDNA expression clone for human FAAH-1 (in pcDNA3 vector) (Genbank Accession U82535; obtained from Benjamin Cravatt, Scripps Research Institute, La Jolla, Calif.) was linearized by digestion with BglII (New England Biolabs) and transfected by calcium phosphate into human HeLa cells (ATCC catalog #CCL-2). […] Following transfection, a stable HeLa-derived clone, designated 5c5, was isolated by single colony purification and expanded and maintained in modified Eagles medium (MEM; VWR catalog #45000-300) containing 10% fetal bovine serum (FBS), 2 mM L-glutamine, and 0.5 mg/mL G-418 (Sigma catalog #G5013).
Clone 5c5 (50,000 cells in 150 μL) was seeded into 96-well plates and incubated overnight (5% CO2, 37° C.). Media was carefully replaced with 180 μL DMEM/F12 medium (VWR catalog #45000-350) containing 15 mM HEPES, pH 7.4 and 0.1% fatty acid free BSA (Sigma catalog #A0281). Then, 2 μL of 100× desired final concentrations of certain exemplary compounds described herein were made up in DMSO, added to wells containing cells, and plates were incubated at 37° C. for 10 min. Next, 20 μL of 5 μM anandamide (Cayman catalog #90050) spiked with 8 μCi of anandamide-(ethanolamine-1-[^3H]) (American Radiolabeled Chemicals, Inc., catalog #ART 626) was added to the cells and the plates were incubated for an additional 15 min at 37° C. The reactions were terminated by chilling the plates on ice and adding 20 μL of 0.5M of potassium phosphate buffer (adjusted to pH 2.1 with phosphoric acid).
The acidified reactions were transferred to 96-well filter plates (0.25 mL capacity/well, 1.2 micron glass fiber pre-filter packed above 0.65 micron pore-size PVDF membrane, Millipore catalog MSFCN6B50) containing 25 μL charcoal (neutral activated carbon, Fisher Scientific catalog C170-500) per well. Prior to the assay, charcoal was measured and loaded onto the plate using an aluminum 96-well column loading device (Millipore catalog MACL09625). The filter plate was assembled over an empty 96-well plate (Costar) using a centrifuge alignment frame (Millipore catalog MACF09604) to allow for collection of the filtrate in the receiver plate. The charcoal glass-fiber filter plates were pre-washed with methanol by centrifugation 650×g for 10 min). Next, 80 μL of water was added to the wells of the pre-washed 96 well charcoal filter plate. Then, 90 μL of the acidified reaction mixture was added to the water in the wells of the charcoal plate. The samples were centrifuged as above. The substrate remained bound to the charcoal, whereas the [^3H]-ethanolamine product formed flowed through and was transferred to the microplates containing scintillation cocktail and quantified in a micro-plate scintillation counter (Perkin-Elmer Microbeta). Control reactions with either no cells or cells treated with DMSO alone were performed in triplicate and used to define background (no cells) and 100% activity (DMSO alone).
Following subtraction of background radioactivity, data were expressed as percent inhibition relative to 100% activity and fit with a nonlinear regression curve using GraphPad Prism Software (GraphPad Software Inc). IC50 values were calculated from the resulting dose-response curves constrained at top and bottom to 100% and 0%, respectively.

COc1cc(NC(=O)C(=O)c2c(C)n(Cc3ccc(Cl)cc3)c3ccc(CN(C)C)cc23)ccn1 [Compound 26, 2-(1-(4-chlorobenzyl)-5-((dimethylamino)methyl)-2-methyl-1H-indol-3-yl)-N-(2-methoxypyridin-4-yl)-2-oxoacetamide]
IC50: < 100 nM

C=Cc1ccc2c(c1)c(C(=O)C(=O)Nc1ccnc(OC)c1)c(C)n2Cc1ccc(Cl)cc1 [Compound 27, 2-(1-(4-chlorobenzyl)-2-methyl-5-vinyl-1H-indol-3-yl)-N-(2-methoxypyridin-4-yl)-2-oxoacetamide]
IC50: < 100 nM

COc1cnc2c(c1)c(C(=O)C(=O)Nc1ccnc(OC)c1)c(C)n2Cc1ncc(Cl)cc1Cl [Compound 29, 2-(1-((3,5-dichloropyridin-2-yl)methyl)-5-methoxy-2-methyl-1H-pyrrolo[2,3-b]pyridin-3-yl)-N-(2-methoxypyridin-4-yl)-2-oxoacetamide]
IC50: < 100 nM

COc1cc(NC(=O)C(=O)c2c(C)n(Cc3ncc(Cl)cc3Cl)c3ccc(C)cc23)ccn1 [Compound 30, 2-(1-((3,5-dichloropyridin-2-yl)methyl)-2,5-dimethyl-1H-indol-3-yl)-N-(2-methoxypyridin-4-yl)-2-oxoacetamide]
IC50: < 100 nM

COc1cc(NC(=O)C(=O)c2c(C)n(Cc3ncc(Cl)cc3Cl)c3ccccc23)ccn1 [Compound 31, 2-(1-((3,5-dichloropyridin-2-yl)methyl)-2-methyl-1H-indol-3-yl)-N-(2-methoxypyridin-4-yl)-2-oxoacetamide]
IC50: < 100 nM

COc1ccc(Cn2c(C)c(C(=O)C(=O)Nc3ccnc(OC)c3)c3cc(OC)c(F)cc32)nc1 [Compound 32, 2-(6-fluoro-5-methoxy-1-((5-methoxypyridin-2-yl)methyl)-2-methyl-1H-indol-3-yl)-N-(2-methoxypyridin-4-yl)-2-oxoacetamide]
IC50: < 100 nM

COc1cc(NC(=O)C(=O)c2c(C)n(Cc3ncc(Cl)cc3F)c3ccc(C)cc23)ccn1 [Compound 33, 2-(1-((5-chloro-3-fluoropyridin-2-yl)methyl)-2,5-dimethyl-1H-indol-3-yl)-N-(2-methoxypyridin-4-yl)-2-oxoacetamide]
IC50: < 100 nM

COc1cnc2c(c1)c(C(=O)C(=O)Nc1ccnc(OC)c1)c(C)n2Cc1ncc(Cl)cc1F [Compound 34, 2-(1-((5-chloro-3-fluoropyridin-2-yl)methyl)-5-methoxy-2-methyl-1H-pyrrolo[2,3-b]pyridin-3-yl)-N-(2-methoxypyridin-4-yl)-2-oxoacetamide]
IC50: < 100 nM

COc1cc(NC(=O)C(=O)c2c(C)n(Cc3ccc(Cl)cc3)c3cnccc23)ccn1 [Compound 35, 2-(1-(4-chlorobenzyl)-2-methyl-1H-pyrrolo[2,3-c]pyridin-3-yl)-N-(2-methoxypyridin-4-yl)-2-oxoacetamide]
IC50: < 100 nM

COc1cc(NC(=O)C(=O)c2c(C)n(Cc3ccc(Cl)cc3)c3ccc(OC)nc23)ccn1 [Compound 36, 2-(1-(4-chlorobenzyl)-5-methoxy-2-methyl-1H-pyrrolo[3,2-b]pyridin-3-yl)-N-(2-methoxypyridin-4-yl)-2-oxoacetamide]
IC50: < 100 nM

COc1cc(NC(=O)C(=O)c2c(C)n(Cc3ccc(Cl)cc3)c3ccncc23)ccn1 [Compound 37, 2-(1-(4-chlorobenzyl)-2-methyl-1H-pyrrolo[3,2-c]pyridin-3-yl)-N-(2-methoxypyridin-4-yl)-2-oxoacetamide]
IC50: < 100 nM

COc1cnc2c(c1)c(C(=O)C(=O)Nc1ccnc(OC)c1)c(C)n2Cc1ccc(Cl)cc1 [Compound 38, 2-(1-(4-chlorobenzyl)-5-methoxy-2-methyl-1H-pyrrolo[2,3-b]pyridin-3-yl)-N-(2-methoxypyridin-4-yl)-2-oxoacetamide]
IC50: < 100 nM

COc1ccc2c(c1)c(C(=O)C(=O)Nc1ccnc(OC)c1)c(C)n2Cc1ccc(S(C)(=O)=O)cc1 [Compound 39, 2-(5-methoxy-2-methyl-1-(4-(methylsulfonyl)benzyl)-1H-indol-3-yl)-N-(2-methoxypyridin-4-yl)-2-oxoacetamide]
IC50: 1000 to 10000 nM

COc1ccc(Cn2c(C)c(C(=O)C(=O)Nc3ccnc(OC)c3)c3cc(OC)cnc32)nc1 [Compound 40, 2-(5-methoxy-1-((5-methoxypyridin-2-yl)methyl)-2-methyl-1H-pyrrolo[2,3-b]pyridin-3-yl)-N-(2-methoxypyridin-4-yl)-2-oxoacetamide]
IC50: < 100 nM

COc1cnc2c(c1)c(C(=O)C(=O)Nc1ccnc(OC)c1)c(C)n2Cc1ccc(Cl)cn1 [Compound 41, 2-(1-((5-chloropyridin-2-yl)methyl)-5-methoxy-2-methyl-1H-pyrrolo[2,3-b]pyridin-3-yl)-N-(2-methoxypyridin-4-yl)-2-oxoacetamide]
IC50: < 100 nM

COc1cnc2c(c1)c(C(=O)C(=O)Nc1ccnc(OC)c1)c(C)n2Cc1ccc(Cl)cc1Cl [Compound 42, 2-(1-(2,4-dichlorobenzyl)-5-methoxy-2-methyl-1H-pyrrolo[2,3-b]pyridin-3-yl)-N-(2-methoxypyridin-4-yl)-2-oxoacetamide]
IC50: < 100 nM

COc1ccc(Cn2c(C)c(C(=O)C(=O)Nc3ccnc(OC)c3)c3cc(OC)ccc32)nc1 [Compound 43, 2-(5-methoxy-1-((5-methoxypyridin-2-yl)methyl)-2-methyl-1H-indol-3-yl)-N-(2-methoxypyridin-4-yl)-2-oxoacetamide]
IC50: < 100 nM

COc1cc(NC(=O)C(=O)c2c(C)n(Cc3ccc(Cl)cc3)c3cc(OC)c(OC)cc23)ccn1 [Compound 44, 2-(1-(4-chlorobenzyl)-5,6-dimethoxy-2-methyl-1H-indol-3-yl)-N-(2-methoxypyridin-4-yl)-2-oxoacetamide]
IC50: < 100 nM

COc1cc(NC(=O)C(=O)c2c(C)n(Cc3ccc(Cl)cc3)c3cccc(OC)c23)ccn1 [Compound 45, 2-(1-(4-chlorobenzyl)-4-methoxy-2-methyl-1H-indol-3-yl)-N-(2-methoxypyridin-4-yl)-2-oxoacetamide]
IC50: < 100 nM

COc1ccc2c(c1)c(C(=O)C(=O)Nc1ccnc(OC)n1)c(C)n2Cc1ccc(Cl)cc1 [Compound 46, 2-(1-(4-chlorobenzyl)-5-methoxy-2-methyl-1H-indol-3-yl)-N-(2-methoxypyrimidin-4-yl)-2-oxoacetamide]
IC50: < 100 nM

COc1ccc2c(c1)c(C(=O)C(=O)Nc1cc(Cl)nc(OC)c1)c(C)n2Cc1ccc(Cl)cc1 [Compound 47, N-(2-chloro-6-methoxypyridin-4-yl)-2-(1-(4-chlorobenzyl)-5-methoxy-2-methyl-1H-indol-3-yl)-2-oxoacetamide]
IC50: < 100 nM

COc1ccc2c(C(=O)C(=O)Nc3ccnc(OC)c3)c(C)n(Cc3ccc(Cl)cc3)c2c1 [Compound 48, 2-(1-(4-chlorobenzyl)-6-methoxy-2-methyl-1H-indol-3-yl)-N-(2-methoxypyridin-4-yl)-2-oxoacetamide]
IC50: < 100 nM

COc1ccc2c(c1)c(C(=O)C(=O)Nc1ccnc(O)c1)c(C)n2Cc1ccc(Cl)cc1 [Compound 50, 2-(1-(4-chlorobenzyl)-5-methoxy-2-methyl-1H-indol-3-yl)-N-(2-hydroxypyridin-4-yl)-2-oxoacetamide]
IC50: 1000 to 10000 nM
